From ChEMBL document CHEMBL1130568, “Antibody-mediated regio- and enantioselective resolution of a glycerol derivative” (Bioorg Med Chem Lett, 1997)
pKi: −log10 of the molar value.

Test: Kinetic parameter for hydrolysis of 1 by Antibody 2D10 after addition of compound 12
Type: ADME

pKi: 5.55
SMILES: CC(=O)O[C@@H](COCc1ccc([N+](=O)[O-])cc1)COP(=O)(O)CCCCCC(=O)O
